Test results as given in patent US20230064983A1 (priority 2020, published 2023).
“And” between values parts separate entries of the source, which are not always exact repeats. Equal entries are not always repeated.

Assays:
Bub1 = biological target: T1, Bub1 (Homo sapiens, UniProt O43683); test: Bub1 high ATP kinase assay (TR-FRET); format: biochemical; conditions: Bub1 high ATP (2 mM) IC50, TR-FRET, 2 mM ATP; Table 3
T1 construct: catalytic domain of human Bub1 (amino acids 704-1085); His6 (N); made in house; host or cells: insect cells (Hi5)
T1 sequence (O43683 704-1085): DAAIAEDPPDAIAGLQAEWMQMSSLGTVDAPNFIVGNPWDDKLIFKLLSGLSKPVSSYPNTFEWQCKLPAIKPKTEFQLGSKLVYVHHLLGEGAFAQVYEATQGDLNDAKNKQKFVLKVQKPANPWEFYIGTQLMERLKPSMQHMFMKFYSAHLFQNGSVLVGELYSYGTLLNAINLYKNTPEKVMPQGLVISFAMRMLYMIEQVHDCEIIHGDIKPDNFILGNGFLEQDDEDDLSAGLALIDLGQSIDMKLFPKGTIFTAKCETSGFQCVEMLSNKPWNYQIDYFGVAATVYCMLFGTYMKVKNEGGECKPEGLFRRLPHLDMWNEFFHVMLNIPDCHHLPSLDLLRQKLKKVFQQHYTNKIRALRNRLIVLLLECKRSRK
How it was run: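 Read-out was the 665/620 nm TR-FRET ratio after 1 h at 22 °C with EDTA stop mix (streptavidin-XL665, anti-phosphoserine antibody, Eu anti-mouse IgG). Beforehand, a biotinylated peptide was phosphorylated for 60 min at 22 °C under high ATP by His6-tagged human Bub1 residues 704-1085 expressed in Hi5 cells, about 200 ng/ml.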

[1] = biological target: Ba/F3-ERBB2-A775_G776insYVMA cells (Homo sapiens, UniProt P04626, DUP772-775, cells depend on it); test: Ba/F3 cell survival assay, ERBB2 A775_G776insYVMA; format: cell-based; conditions: Table 9; read-out: BA/F3 (ERBB2 A775_G776 insYVMA) IC50
Ba/F3-ERBB2-A775_G776insYVMA cells, sequence (P04626 with tags, fused parts or gaps DUP772-775): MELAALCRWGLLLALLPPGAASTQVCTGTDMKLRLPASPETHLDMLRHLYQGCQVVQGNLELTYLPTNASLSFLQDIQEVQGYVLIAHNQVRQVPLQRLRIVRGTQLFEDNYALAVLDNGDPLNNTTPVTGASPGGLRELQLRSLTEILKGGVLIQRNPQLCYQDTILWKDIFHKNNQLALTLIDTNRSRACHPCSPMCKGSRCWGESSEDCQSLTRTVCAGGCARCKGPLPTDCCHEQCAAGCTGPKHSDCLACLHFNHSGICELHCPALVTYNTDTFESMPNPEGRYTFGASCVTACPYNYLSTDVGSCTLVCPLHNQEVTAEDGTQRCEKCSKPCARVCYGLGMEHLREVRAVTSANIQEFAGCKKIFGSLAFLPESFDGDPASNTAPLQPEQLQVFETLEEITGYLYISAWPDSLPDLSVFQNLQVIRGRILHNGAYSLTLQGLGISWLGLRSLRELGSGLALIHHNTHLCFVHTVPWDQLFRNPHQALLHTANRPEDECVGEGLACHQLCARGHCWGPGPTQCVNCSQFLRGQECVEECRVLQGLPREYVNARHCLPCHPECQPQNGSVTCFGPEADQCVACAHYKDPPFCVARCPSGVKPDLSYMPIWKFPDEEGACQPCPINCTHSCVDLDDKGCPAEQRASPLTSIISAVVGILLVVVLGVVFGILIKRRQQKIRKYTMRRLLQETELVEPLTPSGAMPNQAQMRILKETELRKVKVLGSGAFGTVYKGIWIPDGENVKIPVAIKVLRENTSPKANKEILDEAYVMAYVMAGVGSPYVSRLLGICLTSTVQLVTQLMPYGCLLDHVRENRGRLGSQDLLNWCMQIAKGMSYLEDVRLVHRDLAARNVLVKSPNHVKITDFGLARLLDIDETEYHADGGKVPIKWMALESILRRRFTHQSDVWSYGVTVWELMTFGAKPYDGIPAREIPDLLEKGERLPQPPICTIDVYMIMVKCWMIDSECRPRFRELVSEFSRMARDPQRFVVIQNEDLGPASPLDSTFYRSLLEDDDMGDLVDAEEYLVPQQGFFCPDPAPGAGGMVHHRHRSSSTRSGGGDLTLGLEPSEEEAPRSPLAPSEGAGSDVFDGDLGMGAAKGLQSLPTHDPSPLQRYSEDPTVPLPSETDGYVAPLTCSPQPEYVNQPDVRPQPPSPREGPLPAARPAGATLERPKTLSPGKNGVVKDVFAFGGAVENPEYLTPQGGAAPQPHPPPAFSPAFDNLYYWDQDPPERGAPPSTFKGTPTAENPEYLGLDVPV

[2] = biological target: Ba/F3-EGFR-N771_P772insH cells (Homo sapiens, UniProt P00533, INS771H, cells depend on it); test: Ba/F3 cell survival assay, EGFR N771_P772insH; format: cell-based; conditions: EGFR Exon20 insertion mutations; Table 6; read-out: BA/F3 (EGFR N771_P772insH) IC50
Ba/F3-EGFR-N771_P772insH cells, sequence (P00533 with tags, fused parts or gaps INS771H): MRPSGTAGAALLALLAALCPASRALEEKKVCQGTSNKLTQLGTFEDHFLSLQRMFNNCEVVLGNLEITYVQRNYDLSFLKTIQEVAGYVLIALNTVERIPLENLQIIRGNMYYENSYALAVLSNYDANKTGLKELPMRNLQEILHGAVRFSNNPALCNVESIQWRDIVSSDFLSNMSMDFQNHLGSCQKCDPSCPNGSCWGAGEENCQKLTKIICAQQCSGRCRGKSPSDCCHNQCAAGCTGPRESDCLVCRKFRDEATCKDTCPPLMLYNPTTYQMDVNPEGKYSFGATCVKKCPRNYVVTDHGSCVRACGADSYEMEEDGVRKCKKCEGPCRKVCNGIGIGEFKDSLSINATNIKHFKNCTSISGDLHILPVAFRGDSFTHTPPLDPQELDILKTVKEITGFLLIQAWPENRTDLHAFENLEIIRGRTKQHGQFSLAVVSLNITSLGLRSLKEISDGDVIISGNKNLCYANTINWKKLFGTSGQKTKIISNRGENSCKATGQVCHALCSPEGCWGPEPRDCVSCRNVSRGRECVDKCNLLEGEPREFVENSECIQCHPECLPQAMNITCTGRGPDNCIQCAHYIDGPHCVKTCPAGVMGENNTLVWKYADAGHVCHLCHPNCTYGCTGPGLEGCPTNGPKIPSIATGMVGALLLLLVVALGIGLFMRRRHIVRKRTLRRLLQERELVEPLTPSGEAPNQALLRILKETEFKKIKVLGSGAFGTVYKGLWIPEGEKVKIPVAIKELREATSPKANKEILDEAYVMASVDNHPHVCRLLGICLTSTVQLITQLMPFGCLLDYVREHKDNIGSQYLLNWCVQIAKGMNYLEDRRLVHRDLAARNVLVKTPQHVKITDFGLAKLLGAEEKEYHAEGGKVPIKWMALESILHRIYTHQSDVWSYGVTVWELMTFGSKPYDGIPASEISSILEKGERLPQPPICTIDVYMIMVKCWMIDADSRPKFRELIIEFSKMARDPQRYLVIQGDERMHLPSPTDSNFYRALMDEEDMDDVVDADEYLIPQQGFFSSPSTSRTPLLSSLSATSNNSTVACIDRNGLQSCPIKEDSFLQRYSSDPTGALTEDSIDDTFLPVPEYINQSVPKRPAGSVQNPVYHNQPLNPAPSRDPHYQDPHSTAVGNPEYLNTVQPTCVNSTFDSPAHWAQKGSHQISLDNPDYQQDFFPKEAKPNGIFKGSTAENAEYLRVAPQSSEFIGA

Row | Compound | IC50 (Bub1) | GI50 [1] [nM] | GI50 [2] [nM]
1 | COc1c(Cl)cccc1Nc1c(-c2ccncc2OCC2COCCO2)[nH]c2c1C(=O)NCC2C (single isomer, unassigned) [Example 34, 3-(3-chloro-2-methoxy-anilino)-2-[3-(1,4-dioxan-2-ylmethoxy)-4-pyridyl]-7-methyl-1,5,6,7-tetrahydropyrrolo[3,2-c]pyridin-4-one] | > 20 µM | 33.1 | 14.3
2 | COc1c(Cl)cccc1Nc1c(-c2ccncc2OCCC2CCCCO2)[nH]c2c1C(=O)N[C@H](C)C2 (single isomer, unassigned) [Example 87] | 19.1 µM and > 20 µM | 16.2 | 21.6
3 | Cc1c(Cl)cccc1Nc1c(-c2ccncc2OCC2COCCO2)[nH]c2c1C(=O)NCC2C (single isomer, unassigned) [Example 67, 3-(3-chloro-2-methyl-anilino)-2-[3-(1,4-dioxan-2-ylmethoxy)-4-pyridyl]-7-methyl-1,5,6,7-tetrahydropyrrolo[3,2-c]pyridin-4-one] | 10.1 µM | 29.2 | 18.3
4 | COCC(C)Oc1cnccc1-c1[nH]c2c(c1Nc1cccc(Cl)c1OC)C(=O)N[C@@H]1CCC[C@H]21 (single isomer, unassigned) [Example 51] | 7.09 µM | 15.2 | 6.89

Second part, led by results:

Row | IC50 (Bub1) | Compound | GI50 [1] [nM] | GI50 [2] [nM]
5 | 1.83 µM | COc1c(Cl)cccc1Nc1c(-c2ccncc2OCCC(C)OC)[nH]c2c1C(=O)N[C@H](C)C2 (single isomer, unassigned) [Example 121] | 12.8 | 4.49
6 | 0.761 µM | COc1c(Cl)cccc1Nc1c(-c2ccncc2OC[C@@H]2CCCO2)[nH]c2c1C(=O)NC1(CC1)C2 [Example 113, 3′-(3-chloro-2-methoxyanilino)-2′-(3-{[(2S)-oxolan-2-yl]methoxy}pyridin-4-yl)-1′,7′-dihydrospiro[cyclopropane-1,6′-pyrrolo[3,2-c]pyridin]-4′(5′H)-one] | 22.2 | 14.3
